In brackets after ≈: the same amount, converted by molar mass.
How the values were obtained:
[1] = test system: KYSE-150 cells; experiment: Wound healing assay; type: cell-based, human; conditions: PA1 6.25 μg/mL, 72 hours
Experimental: (§1) Murine RAW264.7 macrophages and human esophageal cancer cell lines KYSE-70, KYSE-150, KYSE-410, KYSE-520 were maintained in RPMI 1640 or DMEM medium supplemented with 100 U/mL penicillin, 100 μg/mL streptomycin and 10% FBS in an incubator at 37° C. with a humidified atmosphere of 5% CO2. Cells were sub-cultured every three days at a dilution of 1:6.
6×10^4 cell/well were seeded in 12 well-plate at 30% confluence in completed medium. After 24 hours seeding, the monolayer was wounded by scoring with a sterile plastic tip (1 mL), then washed twice with PBS to remove cell debris and then incubated in a conditioned medium in the absence or presence of PA1 at 6.25 μg/mL for various periods of time up to 72 hours. Cell migration into the wound surface was monitored by Olympus IX71 microscopy and digitally photographed.
In addition, wound-healing assay was used to test whether those compounds could affect cell motility. A confluent monolayer of KYSE-150 cells was scratched to form a wound and incubated in the absence or presence of PA1 at 6.25 μg/mL. The results obtained were compared to that of controls.

[2] = test system: DSS-induced colitis; experiment: DSS-induced colitis mouse model; type: in vivo, C57BL/6 mice
Source text: 7-week-old male C57BL/6 mice weighing about 20-22 g were purchased from the Laboratory Animal Services Center, the Chinese University of Hong Kong. The study protocols were approved by the committee for Care of Laboratory Animals in the School of Chinese Medicine at the Hong Kong Baptist University.
The animals were randomly assigned into five groups (n=8). Mice in the control group were supplied with distilled water whereas all other experimental groups were given 2.0% (w/v) dextran sulphate sodium (DSS) for 5 days. Thereafter, the mice of the DSS, SASP-treated (200 mg/kg/day) and PA1 (10 or 30 mg/kg/day)-treated groups were administered by gavage with saline, SASP or PA1 from day 6 to day 13, respectively.
The DAI was determined by scoring changes in the body weight, diarrhea, colon length, and bleeding.
The colons were dissected longitudinally, gently washed with ice-cold phosphate buffer saline (PBS), fixed in 4% paraformaldehyde overnight, and embedded in paraffin. Each of five-micro-meter sections was stained with hematoxylin/eosin according to a standard procedure to evaluate colonic damage.
Myeloperoxidase (MPO) is an enzyme mainly released by neutrophil, and its activity is directly associated with the severity of inflammation in a given tissue. In the present invention, MPO activity was measured as described in the inventor's earlier publication (Mu, H. X., et al., Anti-inflammatory Actions of (|)-3′alpha-Angeloxy-4′-keto-3′,4′-dihydroseselin (Pd-Ib) against Dextran Sulfate Sodium-Induced Colitis in C57BL/6 Mice. J Nat Prod, 2016). The results were normalized to the wet weight of colon tissue and quantified as units/g tissue.

[3] = test system: KYSE-450 cells; experiment: MTT cytotoxicity assay; type: cell-based; conditions: Homo sapiens, 48 h
Experimental: as §1
(§2) In the present invention, PA1 was dissolved in dimethyl sulfoxide (DMSO) to make stock solutions which were further diluted in culture medium for this experiment. Cells were seeded in a 96-well plate (3×10^3 cells/well) and allowed to attach to the plate overnight. After the recovery, cells were treated with 1.56, 3.125, 6.25, 12.5, 25, 50 μg/mL of PA1 in culture medium for 48 h. Then, 20 μL of MTT (5 mg/mL stock in PBS) per well was added into the medium (200 μL) and incubated for 4 h at 37° C. Finally, the culture medium was removed and 200 μL of DMSO were added to dissolve the purple formazan crystals. Absorbance of the solution was measured using a microplate reader spectrophotometer (Bio-Rad Laboratories, Inc., Hercules, Calif.) at a wavelength of 570 nm.
To determine the cytotoxic effect of PA1 against human esophagus cancer cells (KYSE-70, KYSE-150, KYSE-450 and KYSE-520 cell lines), MTT (3-[4,5-dimethylthiazol-2-yl]-2,5-diphenyltetrazolium bromide) assay was performed.

[4] = test system: LPS-stimulated RAW264.7 macrophages; experiment: Nitric oxide production determination (Griess reagent); type: cell-based, murine; conditions: LPS 100 ng/mL, PA1 1.56-50 μg/mL, vs LPS-alone
Experimental: Murine RAW264.7 macrophages and human esophageal cancer cell lines KYSE-70, KYSE-150, KYSE-410, KYSE-520 were maintained in RPMI 1640 or DMEM medium supplemented with 100 U/mL penicillin, 100 μg/mL streptomycin and 10% FBS in an incubator at 37° C. with a humidified atmosphere of 5% CO2. Cells were sub-cultured every three days at a dilution of 1:6. Nitric oxide (NO) production was indirectly assessed by measuring the nitrite levels in the cultured medium determined by a colorimetric method based on the Griess reagent. The cells were co-treated with various concentrations of PA1 in the absence or presence of LPS (100 ng/mL) at 37° C. for 24 hours. Then, 100 μL of each supernatant was mixed with the equal volume of Griess reagent incubated at room temperature for 15 minutes; meanwhile, sodium nitrite was used as a standard substance. The optical densities were measured at 540 nm with a micro-plate reader.

[5] = test system: RAW264.7 macrophages; experiment: Cell viability of RAW macrophages; type: cell-based, murine; conditions: RAW cells, 1.56-50 μg/mL, 20 hours
Experimental: as §2, with “Murine RAW264.7 macrophages and human esophageal cancer cell lines KYSE-70, KYSE-150, KYSE-410, KYSE-520 were maintained in RPMI 1640 or DMEM medium supplemented with 100 U/mL penicillin, 100 μg/mL streptomycin and 10% FBS in an incubator at 37° C. with a humidified atmosphere of 5% CO2. Cells were sub-cultured every three days at a dilution of 1:6. In the” for “In the”, “plate overnight. […] Then, 20” for “plate overnight. After the recovery, cells were treated with 1.56, 3.125, 6.25, 12.5, 25, 50 μg/mL of PA1 in culture medium for 48 h. Then, 20”

[6] = test system: KYSE-150 cells; experiment: MTT cell viability, KYSE-150; type: cell-based, human; conditions: 6.25 μg/mL
Experimental: as §2, with “Murine RAW264.7 macrophages and human esophageal cancer cell lines KYSE-70, KYSE-150, KYSE-410, KYSE-520 were maintained in RPMI 1640 or DMEM medium supplemented with 100 U/mL penicillin, 100 μg/mL streptomycin and 10% FBS in an incubator at 37° C. with a humidified atmosphere of 5% CO2. Cells were sub-cultured every three days at a dilution of 1:6. In the” for “In the”

[7] = mice, 2% DSS, PA1 10 or 30 mg/kg/day by gavage day 6-13

`Oc1cc(O)c2c(c1)OC1(c3ccc(O)c(O)c3)Oc3cc(O)c4c(c3C2C1O)OC(c1ccc(O)c(O)c1)[C@@H](O)C4` (some centres unmarked) [PA1, proanthocyanidin A1] was tested, and the “Cell migration into the wound” value [1] was “did not migrate into the wound”, the “Colonic MPO activity” value ([2]; colon homogenates, day 14, vs DSS group) was “significantly lower the MPO activity” and the “Histological manifestation of colon (H&E)” value ([2]; mice, 2% DSS, PA1 10 or 30 mg/kg, vs DSS group) was “reduction in mucosal ulceration, crypt damage, edema, and cell infiltration into mucosal tissue”. For the same compound, the “Disease activity index (DAI) score” value [2, 7] was “clinical improvement”, the Mortality [2, 7] was “decreased” and the Body weight loss ([2]; mice, 2% DSS, PA1 10 or 30 mg/kg/day by gavage day 6-13, vs DSS group) was “reduced body weight loss”. For the same compound, the “Shortening of colon length” value ([2]; mice, 2% DSS, PA1 10 or 30 mg/kg/day by gavage, day 14) was “rectified”, the IC50 [3] was 48.6 µg/mL (≈ 84.4 µM) and the NO production [4] was “significant inhibition of NO production”. The Cell viability [5] was “did not alter the cells viability” and the Cell viability [6] was “did not alter the cells viability”.

From patent US20160374985A1, “Bioactivity proanthocyanidin compound isolated from Lasia spinosa (L.) Thwait” (Hong Kong Baptist University, priority 2015, published 2016)
